The compounds below were run against Tyrosine-protein phosphatase non-receptor type 7 (Homo sapiens) (UniProt P35236) (assay: PTPN7 phosphatase inhibitors, biochemical, DiFMUP fluorescence, recombinant human enzyme (AID 401)). Conditions: at 50 µM, enzyme 37.6 ng/mL, 25 °C, DTT 5 mM, active compounds read high.
Sequence of Tyrosine-protein phosphatase non-receptor type 7 (Homo sapiens) (P35236 whole entry, looked up): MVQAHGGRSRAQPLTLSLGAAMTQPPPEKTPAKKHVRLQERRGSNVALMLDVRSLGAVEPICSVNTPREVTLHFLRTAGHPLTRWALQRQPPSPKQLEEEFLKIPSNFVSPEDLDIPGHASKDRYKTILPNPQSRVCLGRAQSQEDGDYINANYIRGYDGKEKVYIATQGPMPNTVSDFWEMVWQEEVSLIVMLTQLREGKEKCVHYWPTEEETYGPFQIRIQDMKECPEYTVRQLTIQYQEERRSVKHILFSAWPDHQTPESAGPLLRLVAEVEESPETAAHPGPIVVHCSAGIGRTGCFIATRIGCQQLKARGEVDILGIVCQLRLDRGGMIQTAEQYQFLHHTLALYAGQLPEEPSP
`OO.OO.[K+].[O]=[V].c1cnc2c(c1)ccc1cccnc12` showed an inhibition of 55%.
Work on `O=C([O-])c1ccccn1.OO.OO.[K+].[K+].[O]=[V]` yielded an inhibition of 71.5%.
`Cn1nc(-c2ccccc2)nc2c(=O)n(C)c(=O)nc1-2` was tested, and the inhibition was 37%.
For `O=C(O)c1ccc(O)cn1.OO.[O]=[V]`, the inhibition was 58.5%.

Same assay, conditions: at 50 µM, enzyme 55 ng/mL, 25 °C, DTT 5 mM, active compounds read high
For `Cn1nc(/C=C/c2ccccc2)nc2c(=O)n(C)c(=O)nc1-2`, the inhibition was 45%.
`COc1cccc(-c2nc3cc(N=Cc4cc(C(=O)O)ccc4O)ccc3o2)c1` gave an inhibition of 56%.
For `O=C(COc1ccc([N+](=O)[O-])cc1)Nc1ccc(O)cc1C(=O)O`, the inhibition was 13%.
Work on `CCOC(=O)c1ccc(N=Cc2cc(C(=O)O)ccc2O)cc1` yielded an inhibition of 39%.
With `O=C1NC(=S)S/C1=C\C=C\c1ccc([N+](=O)[O-])o1` the inhibition was 99%.
In the case of `Cc1ccc(C)n1-c1cc(C(=O)O)ccc1O`, the inhibition was 77%.
`CC(C)CCN1C(=O)c2ccc(C(=O)Nc3ccc(O)cc3C(=O)O)cc2C1=O` was tested, and the inhibition was 45%.
`O=C(O)c1ccc(O)c(N2C(=O)Nc3ccccc3N2O)c1` showed an inhibition of 41%.
For `CCn1nc(/C=C/c2ccccc2)[n+](=O)c2c(=O)n(C)c(=O)[nH]c21`, the inhibition was 32%.
`Cc1ccc2nc(-c3cc(N=Cc4cc(C(=O)O)ccc4O)ccc3O)[nH]c2c1` showed an inhibition of 98%.
`CC1=C(C)OC(Nc2ccc(Cl)cc2C(=O)O)C=C1` (configuration not stated) showed an inhibition of 25%.
In the case of `O=C(O)c1ccc(O)c(C=Nc2ccc3oc(-c4cccc(Cl)c4)nc3c2)c1`, the inhibition was 25%.
`CC(C)CN1C(=O)c2ccc(C(=O)Nc3ccc(O)cc3C(=O)O)cc2C1=O` gave an inhibition of 26%.
For `Cc1ccc(N=Cc2cc(C(=O)O)ccc2O)c(O)c1`, the inhibition was 42%.
`O=C(O)c1ccc([O-])cn1.OO.OO.[K+].[K+].[O]=[V]` showed an inhibition of 76%.
`Oc1c(Cl)c(Cl)c(O)c2nsnc12` showed an inhibition of 24%.
`Cc1c(Cl)c(C)c([N+](=O)[O-])c(O)c1C=Nc1ccc(O)cc1C(=O)O` showed an inhibition of 62%.
`CN(N=O)c1ccc(O)c(O)c1` showed an inhibition of 92%.
`O=C(O)c1ccc(O)c(C=Nc2ccc3oc(-c4cccc(Cl)c4Cl)nc3c2)c1` showed an inhibition of 61%.
`O=C(O)c1ccc(O)c(C=Nc2ccc3oc(-c4cc(Cl)ccc4Cl)nc3c2)c1` showed an inhibition of 39%.
In the case of `Cc1cc(C)c(N2C(=O)c3ccc(C(=O)Nc4ccc(O)cc4C(=O)O)cc3C2=O)c(C)c1`, the inhibition was 44%.
`[NH-]CO.[NH-]CO.[NH-]CO.[NH-]CO.[O]=[V][O][V]=[O]` gave an inhibition of 58%.
`COc1ccc(OC)c(N=Cc2cc(C(=O)O)ccc2O)c1` was tested, and the inhibition was 31%.
`COc1ccc(-c2nc3cc(N=Cc4cc(C(=O)O)ccc4O)ccc3o2)cc1` was tested, and the inhibition was 80%.
Work on `NC1=NC(=O)/C(=C/C=C/c2ccc([N+](=O)[O-])o2)S1` yielded an inhibition of 94%.
Compound `CCn1nc(-c2ccccc2)nc2c(=O)n(C)c(=O)nc1-2` has an inhibition of 16%.
`O=C(O)c1ccc(O)c(C=Nc2ccc3oc(-c4ccc(F)cc4Cl)nc3c2)c1` was tested, and the inhibition was 100%.
For `O=C(O)c1ccc(O)c(C=Nc2cccc(-c3nc4ccccc4o3)c2)c1`, the inhibition was 40%.
For `OO.OO.[K+].[O]=[V].c1ccc(-c2ccccn2)nc1`, the inhibition was 69%.
In the case of `CCn1nc(-c2ccc(Cl)cc2)nc2c(=O)n(C)c(=O)nc1-2`, the inhibition was 58%.
Work on `O=C(O)c1ccc(O)c(/C=N/N(CCO)C2=NS(=O)(=O)c3ccccc32)c1` yielded an inhibition of 57%.
`O=C(O)c1ccc(O)c(C=Nc2ccc3oc(-c4ccccc4)nc3c2)c1` showed an inhibition of 31%.
Work on `CCn1nc(/C=C/c2ccccc2)nc2c(=O)n(C)c(=O)nc1-2` yielded an inhibition of 39%.
`CC(=O)c1ccc2c(c1)C1C=CCC1C(C(=O)O)N2` (configuration not stated) showed an inhibition of 89%.
`Cc1ccc(C)n1-c1ccc(C(=O)O)cc1O` gave an inhibition of 47%.
For `Cc1cccc(O)c1N=Cc1cc(C(=O)O)ccc1O`, the inhibition was 37%.
Compound `O=C(Nc1ccc(O)cc1C(=O)O)c1ccc2c(c1)C(=O)N(CC1CCCO1)C2=O` (configuration not stated) has an inhibition of 35%.
With `O=C1NC(=S)NC(=O)C1=C/C=C/c1ccco1` the inhibition was 97%.
